Measured values as given in patent US20090142808A1, “NOVEL ENZYME WITH FRUCTOFURANOSIDASE ACTIVITY, WHICH IS USED TO OBTAIN PREBIOTIC OLIGOSACCHARIDES” (Consejo Superior de Investigaciones Cientificas, priority 2005, published 2009).

How the values were obtained:
[1] = system: X. dendrorhous F-3 fraction (purified fructofuranosidase); test: Hydrolytic (fructofuranosidase) activity of the purified enzyme F-3 on different substrates; type: biochemical, Xanthophyllomyces dendrorhous; details: for Hydrolytic activity observed: enzyme purified to homogeneity (F-3); for Specific activity: purified protein, 1% substrate
Method: (§1) The cell-free fraction was obtained by centrifugation (F-0) of an X. dendrorhous culture grown at 23° C. and 160 rpm. Fructofuranosidase activity was assayed in this fraction by assessing the release of glucose on different substrates. A colorimetric assay and standard methodology were used. The released glucose was quantified using the glucose oxidase-peroxidase coupled reaction: 0.4 ml of the solution to be assayed was mixed with 0.1 ml of A:B solution (20:1) (A: 0.85 U/ml glucose oxidase, 0.40 U/ml peroxidase in sodium phosphate buffer pH 5; B: 0.6% o-dianisidine). It was incubated for 30 minutes at 37° C. and spectrophotometrically quantified at 450 nm. A standard glucose curve (1 to 100 μg/ml) was used. The fructofuranosidase activity unit is defined in μg/ml min of glucose assessed in the described conditions.
The hydrolytic activity of the enzyme purified to homogeneity (F-3) following the described process was assayed on different substrates.

[2] = system: extracellular fraction of X. dendrorhous (fructofuranosidase activity); test: Fructofuranosidase activity of the cell-free extracellular fraction on different carbohydrates (glucose release, glucose oxidase-peroxidase); type: biochemical, Xanthophyllomyces dendrorhous; details: for Fructofuranosidase activity detected: cell-free fraction, compound used as substrate; for Specific activity: cell-free fraction of culture in maltose minimal medium, 2.37 ODU660 nm
Method: as §1
The cell-free fraction, obtained by centrifuging an X. dendrorhous culture in maltose minimal medium, grown to an optical density of 2.37 ODU660 nm, was assayed on different substrates.

[3] = system: purified X. dendrorhous enzyme (F-3); test: Fructosyltransferase activity: sucrose 600 g/l incubated with purified enzyme at 45° C., HPLC; type: biochemical, Xanthophyllomyces dendrorhous; details: for Composition of the reaction mixture: 45° C., 600 g sucrose/l, 5 U/ml; for composition of the system at the end time: Example 8: 160 hours, 40° C. as printed (heading 45° C.), 200 rpm, FOS = tri- and tetrasaccharides
Method: (§2) A study was carried out using a high concentration of sucrose (600 g/l), conditions which can favor the formation of glycosidic bonds in detriment of hydrolysis. […] On one hand, fructose (peak 1) and glucose (peak 2) are formed as hydrolytic products. On the other hand, two trisaccharides are formed: a majority product (peak 4), which is most likely neokestose [β-D-Fru-(2→6)-α-D-Glu-(1→2)-D-Fru] (since it is the majority transfructosylation product described in X. dendrorhous cultures) and another minor product (peak 5), identified as 1-kestose [α-D-Glu-(1→2)-β-D-Fru(1→2)-β-D-Fru]. Small amounts of different compounds (peaks 6-8) which, taking into account the retention time in the column, are probably tetrasaccharides not yet identified, are furthermore observed. The sucrose which has not yet reacted corresponds to peak 3.
A solution with a high concentration of sucrose (600 g/l) in 0.2 M sodium acetate buffer pH 5.6 was prepared. 5 U/ml of fructofuranosidase (a unit U is the enzymatic activity corresponding to the release of a micromole of reducer sugars per minute using sucrose 100 g/l as a substrate in 0.2 M buffer sodium acetate pH 5.6 at 60° C.) were added. […] Aliquots were extracted at different times, incubated for 5 minutes at 80° C. to inactivate the enzyme, diluted 1:4 (v/v) with water, centrifuged for 5 min at 6000 rpm in an Eppendorf tube with a 0.45 μm filter and analyzed by HPLC liquid chromatography. The profile of the products formed can be seen in FIG. 5. […] Two trisaccharides are obtained: a majority product which is most likely neokestose [β-D-Fru-(2→6)-α-D-Glu-(1→2)-D-Fru] and another minor product identified as 1-kestose [α-D-Glu-(1→2)-β-D-Fru(1→2)-β-D-Fru]. At the end time (160 hours), the composition of the system was: 10.5% fructose, 17.6% glucose, 54.6% sucrose, 17.3% fructooligosaccharides (tri- and tetrasaccharides).

[4] = system: purified X. dendrorhous enzyme (F-3); test: Fructosyltransferase activity: sucrose 600 g/l incubated with purified enzyme at 60° C., HPLC; type: biochemical, Xanthophyllomyces dendrorhous
Method: as §2
The total percentage (w/w) of fructooligosaccharides after 160 hours of reaction was the 9.7%, value relating to the total carbohydrates in the medium.

[5] = system: Whole X. dendrorhous cells; details: cell suspension in phosphate-citrate buffer, 25° C., 11% sucrose; cited from earlier work
[6] = molecular target: X. dendrorhous fructofuranosidase (Phaffia rhodozyma, UniProt B8YJM2); test: Kinetic characterization of the purified enzyme on sucrose; type: biochemical, Xanthophyllomyces dendrorhous; details: 20 minutes, 20 μl purified enzyme; standard error of the mean ±10
Method: The kinetic characterization of the enzyme purified according to the described process was performed on sucrose. […] The assays were performed in 20 minutes and 20 μl of purified enzyme for each reaction according to the described process.

[7] = 160 h, new catalyst load (5 U) added after 140 hours
[8] = 186 h, new catalyst load (5 U) added after 140 hours
[9] = reaction time 24 h, 600 g sucrose/l, 5 U/ml
[10] = reaction time 140 h, 600 g sucrose/l, 5 U/ml
[11] = reaction time 160 h, 600 g sucrose/l, 5 U/ml

Chain of X. dendrorhous fructofuranosidase (B8YJM2 entry or part of it): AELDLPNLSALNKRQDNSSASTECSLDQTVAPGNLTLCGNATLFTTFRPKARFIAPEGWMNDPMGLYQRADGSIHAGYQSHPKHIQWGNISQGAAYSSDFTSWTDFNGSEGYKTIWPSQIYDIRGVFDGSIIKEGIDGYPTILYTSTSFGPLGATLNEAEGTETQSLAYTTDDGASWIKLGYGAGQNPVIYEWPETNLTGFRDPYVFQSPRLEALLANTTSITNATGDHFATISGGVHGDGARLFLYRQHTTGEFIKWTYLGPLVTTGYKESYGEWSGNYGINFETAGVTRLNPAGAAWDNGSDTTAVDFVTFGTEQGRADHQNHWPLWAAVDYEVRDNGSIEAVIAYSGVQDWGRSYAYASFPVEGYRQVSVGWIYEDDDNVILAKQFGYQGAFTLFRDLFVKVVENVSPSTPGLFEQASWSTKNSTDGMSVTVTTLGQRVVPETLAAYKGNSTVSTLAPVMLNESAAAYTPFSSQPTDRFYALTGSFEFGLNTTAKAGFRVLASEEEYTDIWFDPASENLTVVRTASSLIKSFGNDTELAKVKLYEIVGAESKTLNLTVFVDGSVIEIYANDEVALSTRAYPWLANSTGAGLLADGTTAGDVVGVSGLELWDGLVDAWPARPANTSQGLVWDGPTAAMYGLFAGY

Compound | Hydrolytic activity observed [1] | Fructofuranosidase activity detected [2] | Composition of the reaction mixture ([3]; reaction time 24 h) [grams/liter] | Composition of the reaction mixture ([3]; reaction time 140 h) [grams/liter] | Composition of the reaction mixture ([3]; reaction time 160 h) [grams/liter] | Specific activity [1] [U/μg] | Specific activity [2] [mU/μg] | Composition of the reaction mixture [4, 7] [grams/liter] | Composition of the reaction mixture [4, 8] [grams/liter] | Composition of the reaction mixture [4, 9] [grams/liter] | Composition of the reaction mixture [4, 10] [grams/liter] | Composition of the reaction mixture [4, 11] [grams/liter] | further results
OC[C@H]1O[C@H](O[C@H]2[C@H](O)[C@@H](O)C(O)O[C@@H]2CO)[C@H](O)[C@@H](O)[C@@H]1O (mixture of isomers) [maltose] | No activity was observed | No activity was detected | – | – | – | – | – | – | – | – | – | – | –
OC[C@H]1O[C@@](CO)(OC[C@@]2(O[C@H]3O[C@H](CO)[C@@H](O)[C@H](O)[C@H]3O)O[C@H](CO)[C@@H](O)[C@@H]2O)[C@@H](O)[C@@H]1O [1-kestose] | – | – | 9.2 | 24.8 | 33.5 | 41 | 1675 | 23.9 | 25.8 | 10.3 | 21.3 | 21.9 | –
O=C(CO)[C@@H](O)[C@H](O)[C@H](O)CO [fructose] | – | – | 19.0 | 63.5 | 65.1 | – | – | 56.5 | 76.0 | 36.8 | 40.9 | 41.2 | composition of the system at the end time [3]: 10.5%
O=C[C@H](O)[C@@H](O)[C@H](O)[C@H](O)CO [glucose] | – | – | 37.8 | 106.8 | 109.3 | – | – | 119.5 | 131.2 | 53.2 | 79.3 | 84.3 | composition of the system at the end time [3]: 17.6%
OC[C@H]1O[C@H](O[C@@H]2COC(O)(CO)[C@@H](O)[C@@H]2O)[C@H](O)[C@@H](O)[C@@H]1O (some centres unmarked) [leucrose] | No activity was observed | No activity was detected | – | – | – | – | – | – | – | – | – | – | –
OC[C@H]1O[C@H](O[C@H]2[C@H](O)[C@@H](O)[C@@H](O[C@H]3[C@H](O)[C@@H](O)[C@@H](O[C@H]4[C@H](O)[C@@H](O)[C@@H](O[C@H]5[C@H](O)[C@@H](O)[C@@H](O[C@H]6[C@H](O)[C@@H](O)[C@@H](O[C@H]7[C@H](O)[C@@H](O)C(O)O[C@@H]7CO)O[C@@H]6CO)O[C@@H]5CO)O[C@@H]4CO)O[C@@H]3CO)O[C@@H]2CO)[C@H](O)[C@@H](O)[C@@H]1O (some centres unmarked) [maltoheptose] | No activity was observed | No activity was detected | – | – | – | – | – | – | – | – | – | – | –
OC[C@H]1O[C@@](CO)(OC[C@H]2O[C@H](O[C@]3(CO)O[C@H](CO)[C@@H](O)[C@@H]3O)[C@H](O)[C@@H](O)[C@@H]2O)[C@@H](O)[C@@H]1O [neokestose] | – | – | 20.5 | 47.4 | 53.3 | – | – | 41.6 | 43.9 | 25.8 | 34.3 | 36.5 | maximum of neokestose obtained [5]: 75.1 g/L
OC[C@H]1O[C@@](CO)(OC[C@@]2(OC[C@@]3(O[C@H]4O[C@H](CO)[C@@H](O)[C@H](O)[C@H]4O)O[C@H](CO)[C@@H](O)[C@@H]3O)O[C@H](CO)[C@@H](O)[C@@H]2O)[C@@H](O)[C@@H]1O [nistose] | – | – | – | – | – | 13 | 502 | – | – | – | – | – | –
OC[C@H]1O[C@H](OC[C@H]2OC(O)(CO)[C@@H](O)[C@@H]2O)[C@H](O)[C@@H](O)[C@@H]1O (some centres unmarked) [palatinose] | – | – | – | – | – | 5 | 217 | – | – | – | – | – | –
OC[C@H]1O[C@H](OC[C@H]2O[C@H](O[C@]3(CO)O[C@H](CO)[C@@H](O)[C@@H]3O)[C@H](O)[C@@H](O)[C@@H]2O)[C@H](O)[C@@H](O)[C@H]1O [raffinose] | – | – | – | – | – | 8 | 335 | – | – | – | – | – | –
OC[C@H]1O[C@@](CO)(O[C@H]2O[C@H](CO)[C@@H](O)[C@H](O)[C@H]2O)[C@@H](O)[C@@H]1O [sucrose] | – | – | 513.4 | 357.5 | 338.9 | 675 | 62140 | 358.4 | 323.1 | 474.0 | 424.2 | 416.1 | composition of the system at the end time [3]: 54.6%; Km [6]: 4 mM; Vmax [6]: 947 μg glucose min^−1; kcat [6]: 2.35 s⁻¹
maltotriose | No activity was observed | No activity was detected | – | – | – | – | – | – | – | – | – | – | –
